For 5 compounds, EC50 and solubility results are on record in patent US20250382344A1, “Soluble GLP1/GIP/NPY2 Receptor Triple Agonists” (Boehringer Ingelheim International GmH, priority 2024, published 2025).

In data set [1] the target is T1, hGLP1R (Homo sapiens, UniProt P43220).
T1 construct: expressed in transfected cells; host or cells: HEK-293 CRE-luciferase reporter cells
The data set can be described thus: hGLP1R CreLuc assay in 0.5% and 100% plasma (HEK-293 CRE-luciferase reporter cells). Type of data set: cell-based. To be noted: HEK-293 reporter cells.

Data set [2] is described as follows: Solubility in 0.1 M phosphate buffer at pH 7. In kind it is physicochemical. To be noted: 0.1 M phosphate buffer at pH 7, 10 mg/mL final peptide concentration, shaking 2 hours at room temperature, peptides as TFA-salts; measured sample pH 6.5-7.0.
Data set [3] concerns the target T2, hGIPR (Homo sapiens, UniProt P48546).
T2 construct: expressed in transfected cells; host or cells: CHO CRE-luciferase reporter cells
T2 sequence (P48546 22-466): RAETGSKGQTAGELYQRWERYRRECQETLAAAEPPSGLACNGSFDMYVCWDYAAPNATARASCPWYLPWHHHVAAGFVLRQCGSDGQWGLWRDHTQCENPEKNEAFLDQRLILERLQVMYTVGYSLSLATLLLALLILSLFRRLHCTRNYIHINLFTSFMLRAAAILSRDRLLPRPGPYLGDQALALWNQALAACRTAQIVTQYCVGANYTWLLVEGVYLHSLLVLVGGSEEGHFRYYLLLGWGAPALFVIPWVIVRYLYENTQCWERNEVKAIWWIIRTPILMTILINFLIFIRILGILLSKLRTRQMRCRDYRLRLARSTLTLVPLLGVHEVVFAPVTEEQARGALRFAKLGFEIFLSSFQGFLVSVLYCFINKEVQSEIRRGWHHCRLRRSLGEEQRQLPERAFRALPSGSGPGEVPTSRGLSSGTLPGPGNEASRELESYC
The data set can be described thus: hGIPR CreLuc assay in 0.5% and 100% plasma (CHO CRE-luciferase reporter cells). Type of data set: cell-based. In general terms: In a reporter assay the amount or activity of a reporter protein is the signal.

Setting [4] is: 0.5% human plasma, read-out: hGLP1R 0.5% hP.
[5] abbreviates: 100% human plasma, read-out: hGLP1R 100% hP.
Where [6] appears, read: 0.5% human plasma, read-out: hGIPR 0.5% hP.
[7] abbreviates: 100% human plasma, read-out: hGIPR 100% hP.

Molecules are shown by their SMILES. Like-named read-outs stand apart in the source and are kept apart here. *1 amine or outer side, *2 acyl side, *3 side chain or, on linkers, in order; H or OH if unused. Where a SMILES comes first, the peptide text is derived from it. Side-chain parts run from the residue outwards. [ ]: non-standard residue; d: D form. The star is where a group is joined. C18 diacid = O=C(O)CCCCCCCCCCCCCCCCC(=O)*; γGlu = O=C(O)[C@H](CCC(=O)[*:2])N[*:1]; εLys = N[C@@H](CCCCN[*:1])C(=O)[*:2]; Aib = CC(C)(N)C(=O)O

In general, solubility refers to the concentration that dissolves in the medium under given conditions.

T1 sequence (P43220 24-463): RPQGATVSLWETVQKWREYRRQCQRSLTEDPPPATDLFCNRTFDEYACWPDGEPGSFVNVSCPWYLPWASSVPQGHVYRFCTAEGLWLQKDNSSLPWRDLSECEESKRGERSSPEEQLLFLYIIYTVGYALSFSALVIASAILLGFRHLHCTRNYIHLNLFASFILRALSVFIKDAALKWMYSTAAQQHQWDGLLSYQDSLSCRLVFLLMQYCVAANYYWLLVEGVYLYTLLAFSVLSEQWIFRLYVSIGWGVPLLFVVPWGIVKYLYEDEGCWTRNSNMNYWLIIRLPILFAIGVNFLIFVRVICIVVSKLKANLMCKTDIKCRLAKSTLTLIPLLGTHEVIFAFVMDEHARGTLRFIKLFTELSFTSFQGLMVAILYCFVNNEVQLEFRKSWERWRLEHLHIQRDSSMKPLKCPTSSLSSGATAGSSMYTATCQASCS

In the case of `CC[C@H](C)[C@H](NC(=O)[C@H](CC(C)C)NC(=O)[C@H](Cc1c[nH]cn1)NC(=O)[C@H](CCCNC(=N)N)NC(=O)[C@@H](NC(=O)[C@H](Cc1ccccc1)NC(=O)[C@H](C)NC(=O)C(C)(C)NC(=O)[C@H](CCC(N)=O)NC(=O)[C@H](C)NC(=O)[C@H](CCC(N)=O)NC(=O)[C@H](CCCCN)NC(=O)[C@H](CC(=O)O)NC(=O)[C@H](CC(C)C)NC(=O)[C@](C)(CC(C)C)NC(=O)[C@@H](NC(=O)[C@H](CO)NC(=O)[C@H](Cc1ccc(O)cc1)NC(=O)[C@H](CC(=O)O)NC(=O)[C@H](CO)NC(=O)[C@@H](NC(=O)[C@H](Cc1ccccc1)NC(=O)[C@@H](NC(=O)CNC(=O)[C@H](CCC(=O)O)NC(=O)C(C)(C)NC(=O)[C@@H](N)Cc1ccc(O)cc1)[C@@H](C)O)[C@@H](C)O)[C@@H](C)CC)C(C)C)C(=O)N[C@@H](CC(N)=O)C(=O)N[C@@H](CCCCNC(=O)[C@@H](N)CCCCNC(=O)CC[C@H](NC(=O)CC[C@H](NC(=O)CC[C@H](NC(=O)CC[C@H](NC(=O)CC[C@H](NC(=O)CC[C@H](NC(=O)CCCCCCCCCCCCCCCCC(=O)O)C(=O)O)C(=O)O)C(=O)O)C(=O)O)C(=O)O)C(=O)O)C(=O)NC(C)(C)C(=O)N[C@H](C(=O)N[C@@H](CCCNC(=N)N)C(=O)N[C@@H](CCC(N)=O)C(=O)N[C@@H](CCCNC(=N)N)C(=O)N[C@@H](Cc1ccc(O)cc1)C(N)=O)[C@@H](C)O` [Compound 67, Y-Aib-E-G-T-F-T-S-D-Y-S-I-aMeL-L-D-K-Q-A-Q-Aib-A-F-V-R-H-L-I-N-K(1,3)-Aib-T-R-Q-R-Y-NH2.C18DA-gGlu-gGlu-gGlu-gGlu-gGlu-gGlu-eLys(1,2)], the EC50 in data set [1] (setting [4]) was 100 pM; in data set [1] (setting [5]) it was 600 pM; in data set [3] (setting [6]) it was 100 pM; in data set [3] (setting [7]), 1700 pM. The solubility at 2 h in data set [2] amounted to 8800 µg/mL.
Turning to `CC[C@H](C)[C@H](NC(=O)[C@H](CC(C)C)NC(=O)[C@H](Cc1c[nH]cn1)NC(=O)[C@H](CCCNC(=N)N)NC(=O)[C@@H](NC(=O)[C@H](Cc1ccccc1)NC(=O)[C@H](C)NC(=O)C(C)(C)NC(=O)[C@H](CCC(N)=O)NC(=O)[C@H](C)NC(=O)[C@H](CCC(N)=O)NC(=O)[C@H](CCCCN)NC(=O)[C@H](CCC(=O)O)NC(=O)[C@H](CC(C)C)NC(=O)C(C)(C)NC(=O)[C@@H](NC(=O)[C@H](CO)NC(=O)[C@H](Cc1ccc(O)cc1)NC(=O)[C@H](CC(=O)O)NC(=O)[C@H](CO)NC(=O)[C@@H](NC(=O)[C@H](Cc1ccccc1)NC(=O)[C@@H](NC(=O)CNC(=O)[C@H](CCC(=O)O)NC(=O)C(C)(C)NC(=O)[C@@H](N)Cc1ccc(O)cc1)[C@@H](C)O)[C@@H](C)O)[C@@H](C)CC)C(C)C)C(=O)N[C@@H](C)C(=O)N[C@@H](CCCCNC(=O)[C@@H](N)CCCCNC(=O)CC[C@H](NC(=O)CC[C@H](NC(=O)CC[C@H](NC(=O)CC[C@H](NC(=O)CC[C@H](NC(=O)CC[C@H](NC(=O)CCCCCCCCCCCCCCCCC(=O)O)C(=O)O)C(=O)O)C(=O)O)C(=O)O)C(=O)O)C(=O)O)C(=O)NC(C)(C)C(=O)N[C@H](C(=O)N[C@@H](CCCNC(=N)N)C(=O)N[C@@H](CCC(N)=O)C(=O)N[C@@H](CCCNC(=N)N)C(=O)N[C@@H](Cc1ccc(O)cc1)C(N)=O)[C@@H](C)O` [Compound 68, Y-Aib-E-G-T-F-T-S-D-Y-S-I-Aib-L-E-K-Q-A-Q-Aib-A-F-V-R-H-L-I-A-K(1,3)-Aib-T-R-Q-R-Y-NH2.C18DA-gGlu-gGlu-gGlu-gGlu-gGlu-gGlu-eLys(1,2)] (H-Y[Aib]EGTFTSDYSI[Aib]LEKQAQ[Aib]AFVRHLIAK([εLys-γGlu-γGlu-γGlu-γGlu-γGlu-γGlu-C18 diacid])[Aib]TRQRY-NH2; N-terminus assumed), the figures for the EC50 in data set [1] (setting [4]) and in data set [3] (setting [6]) were 600 pM and 200 pM, respectively. For the same compound, in data set [2], the solubility at 2 h worked out at 4800 µg/mL.
As for `CC[C@H](C)[C@H](NC(=O)[C@H](CC(C)C)NC(=O)[C@H](Cc1c[nH]cn1)NC(=O)[C@H](CCCNC(=N)N)NC(=O)[C@@H](NC(=O)[C@H](Cc1ccccc1)NC(=O)[C@H](C)NC(=O)C(C)(C)NC(=O)[C@H](CCC(N)=O)NC(=O)[C@H](C)NC(=O)[C@H](CCC(N)=O)NC(=O)[C@H](CCC(=O)O)NC(=O)[C@H](CCC(=O)O)NC(=O)[C@H](CC(C)C)NC(=O)[C@](C)(CC(C)C)NC(=O)[C@@H](NC(=O)[C@H](CO)NC(=O)[C@H](Cc1ccc(O)cc1)NC(=O)[C@H](CC(=O)O)NC(=O)[C@H](CO)NC(=O)[C@@H](NC(=O)[C@H](Cc1ccccc1)NC(=O)[C@@H](NC(=O)CNC(=O)[C@H](CCC(=O)O)NC(=O)C(C)(C)NC(=O)[C@@H](N)Cc1ccc(O)cc1)[C@@H](C)O)[C@@H](C)O)[C@@H](C)CC)C(C)C)C(=O)N[C@@H](CC(N)=O)C(=O)N[C@@H](CCCCNC(=O)[C@@H](N)CCCCNC(=O)CC[C@H](NC(=O)CC[C@H](NC(=O)CC[C@H](NC(=O)CC[C@H](NC(=O)CC[C@H](NC(=O)CC[C@H](NC(=O)CCCCCCCCCCCCCCCCCCC(=O)O)C(=O)O)C(=O)O)C(=O)O)C(=O)O)C(=O)O)C(=O)O)C(=O)NC(C)(C)C(=O)N[C@H](C(=O)N[C@@H](CCCNC(=N)N)C(=O)N[C@@H](CCC(N)=O)C(=O)N[C@@H](CCCNC(=N)N)C(=O)N[C@@H](Cc1ccc(O)cc1)C(N)=O)[C@@H](C)O` [Compound 89, Y-Aib-E-G-T-F-T-S-D-Y-S-I-aMeL-L-E-E-Q-A-Q-Aib-A-F-V-R-H-L-I-N-K(1,3)-Aib-T-R-Q-R-Y-NH2.C20DA-gGlu-gGlu-gGlu-gGlu-gGlu-gGlu-eLys(1,2)], the EC50 in data set [1] (setting [4]) came out at 200 pM; in data set [1] (setting [5]) it was 1700 pM; in data set [3] (setting [6]) it was 100 pM; in data set [3] (setting [7]) it was 900 pM. Further, in data set [2], the solubility at 2 h stood at 8800 µg/mL.
On to `CC[C@H](C)[C@H](NC(=O)[C@H](CC(C)C)NC(=O)[C@H](Cc1c[nH]cn1)NC(=O)[C@H](CCCNC(=N)N)NC(=O)[C@@H](NC(=O)[C@H](Cc1ccccc1)NC(=O)[C@H](CCC(=O)O)NC(=O)C(C)(C)NC(=O)[C@H](CCC(N)=O)NC(=O)[C@H](C)NC(=O)[C@H](CCC(N)=O)NC(=O)[C@H](CCCCN)NC(=O)[C@H](CCC(=O)O)NC(=O)[C@H](CC(C)C)NC(=O)C(C)(C)NC(=O)[C@@H](NC(=O)[C@H](CO)NC(=O)[C@H](Cc1ccc(O)cc1)NC(=O)[C@H](CC(=O)O)NC(=O)[C@H](CO)NC(=O)[C@@H](NC(=O)[C@H](Cc1ccccc1)NC(=O)[C@@H](NC(=O)CNC(=O)[C@H](CCC(=O)O)NC(=O)C(C)(C)NC(=O)[C@@H](N)Cc1ccc(O)cc1)[C@@H](C)O)[C@@H](C)O)[C@@H](C)CC)C(C)C)C(=O)N[C@@H](CC(N)=O)C(=O)N[C@@H](CCCCNC(=O)COCCOCCNC(=O)COCCOCCNC(=O)CC[C@H](NC(=O)CC[C@H](NC(=O)CC[C@H](NC(=O)CC[C@H](NC(=O)CC[C@H](NC(=O)CCCCCCCCCCCCCCCCC(=O)O)C(=O)O)C(=O)O)C(=O)O)C(=O)O)C(=O)O)C(=O)NC(C)(C)C(=O)N[C@H](C(=O)N[C@@H](CCCNC(=N)N)C(=O)N[C@@H](CCC(N)=O)C(=O)N[C@@H](CCCNC(=N)N)C(=O)N[C@@H](Cc1ccc(O)cc1)C(N)=O)[C@@H](C)O` [Compound 98, Y-Aib-E-G-T-F-T-S-D-Y-S-I-Aib-L-E-K-Q-A-Q-Aib-E-F-V-R-H-L-I-N-K(1,3)-Aib-T-R-Q-R-Y-NH2.C18DA-gGlu-gGlu-gGlu-gGlu-gGlu-OEG-OEG(1,2)], for which the EC50 in data set [1] (setting [4]) is 700 pM; in data set [3] (setting [6]) it was 500 pM. For the same compound, the solubility at 2 h in data set [2] turned out to be 4900 µg/mL.
On to `CC[C@H](C)[C@H](NC(=O)[C@H](CC(C)C)NC(=O)[C@H](Cc1c[nH]cn1)NC(=O)[C@H](CCCNC(=N)N)NC(=O)[C@@H](NC(=O)[C@H](Cc1ccccc1)NC(=O)[C@H](CCC(=O)O)NC(=O)C(C)(C)NC(=O)[C@H](CCC(N)=O)NC(=O)[C@H](C)NC(=O)[C@H](CCC(N)=O)NC(=O)[C@H](CCCCN)NC(=O)[C@H](CC(=O)O)NC(=O)[C@H](CC(C)C)NC(=O)C(C)(C)NC(=O)[C@@H](NC(=O)[C@H](CO)NC(=O)[C@H](Cc1ccc(O)cc1)NC(=O)[C@H](CC(=O)O)NC(=O)[C@H](CO)NC(=O)[C@@H](NC(=O)[C@H](Cc1ccccc1)NC(=O)[C@@H](NC(=O)CNC(=O)[C@H](CCC(=O)O)NC(=O)C(C)(C)NC(=O)[C@@H](N)Cc1ccc(O)cc1)[C@@H](C)O)[C@@H](C)O)[C@@H](C)CC)C(C)C)C(=O)N[C@@H](CC(N)=O)C(=O)N[C@@H](CCCCNC(=O)[C@@H](N)CCCCNC(=O)CC[C@H](NC(=O)CC[C@H](NC(=O)CC[C@H](NC(=O)CC[C@H](NC(=O)CC[C@H](NC(=O)CCCCCCCCCCCCCCCCC(=O)O)C(=O)O)C(=O)O)C(=O)O)C(=O)O)C(=O)O)C(=O)NC(C)(C)C(=O)N[C@H](C(=O)N[C@@H](CCCNC(=N)N)C(=O)N[C@@H](CCC(N)=O)C(=O)N[C@@H](CCCNC(=N)N)C(=O)N[C@@H](Cc1ccc(O)cc1)C(N)=O)[C@@H](C)O` [Compound 113, Y-Aib-E-G-T-F-T-S-D-Y-S-I-Aib-L-D-K-Q-A-Q-Aib-E-F-V-R-H-L-I-N-K(1,3)-Aib-T-R-Q-R-Y-NH2.C18DA-gGlu-gGlu-gGlu-gGlu-gGlu-eLys(1,2)], for which the figures for the EC50 in data set [1] (setting [4]), in data set [3] (setting [6]) and in data set [3] (setting [7]) were 100 pM, 200 pM and 5500 pM, respectively. In data set [2], the solubility at 2 h is 8700 µg/mL.
